# Laboratory results as given in US8030346B2, “Heterocyclic quinolone derivatives that inhibit prolyl hydroxylase activity” (Amgen Inc., priority 2007, dated 2011).
# Assays:
# [1] = molecular target: HIF PHD2 (Homo sapiens, UniProt Q9GZT9); assay: PHD2 inhibition assay (TR-FRET, VCB-Eu detection of hydroxylated P564-HIF1α peptide); format: biochemical; conditions: Table of PHD2 IC50 values of Example Compounds
# Description: Inhibition of HIF PHD2 activity was quantified utilizing the TR-FRET technology. HIF PHD2 catalyzes a hydroxyl modification on the proline residue of the P564-HIF1α peptide substrate (Biotin-[…] (SEQ ID NO: 7)) resulting in recognition and binding of the europylated Von Hippel-Lindau protein (pVHL), elongin B and elongin C heterotrimeric (VCB-Eu) complex.
# The PHD2 inhibition assay was executed by addition of freshly dissolved FeCl2 to 178.57 μM (100 μM final concentration) in PHD2 Reaction Buffer containing 30 mM MES, pH 6, 10 mM NaCl, 0.25% Brij-35, 0.01% BSA, and 1% DMSO. 28 μL of the iron solution and 2 μL of inhibitor compounds serially diluted in 100% DMSO (5% DMSO final) were added to black polypropylene 96-well microtiter plates. To that, 10 μL of 10 nM PHD2 (2 nM final) was added to all wells of the plate except for the 8 wells of column 12 (LO control), and allowed to incubate at room temperature on the shaker for one hour. Column 6 was the HI control containing PHD2 enzyme and 5% DMSO vehicle, but no inhibitor compound. To initiate the PHD2 enzymatic reaction, 10 μL of a solution containing 500 nM P564-HIF1α peptide (100 nM final), 10 mM ascorbic acid (2 mM final), and 1.25 μM 2-oxoglutarate (α-ketoglutarate; 0.25 μM final) in PHD2 Reaction Buffer was added to all wells of the plate and allowed to incubate on the shaker at room temperature for one hour.
# The reaction was terminated by addition of 25 μL TR-FRET Buffer (50 mM TRIS-HCl, pH 9, 100 mM NaCl, 0.05% BSA, and 0.5% Tween-20) containing 150 mM succinate (product inhibitor; 50 mM final), 75 nM streptavidin-APC (25 nM final), and 7.5 nM VCB-Eu (2.5 nM final). The TR-FRET detection reagents were placed on a shaker for 1 hour to reach binding equilibrium before reading on the Discovery platform (PerkinElmer). Europium is excited at 315 nm and phosphoresces at 615 nm with a large Stoke's shift. APC, in turn, emits at 655 nm upon excitation at 615 nm. The TR-FRET signal is measured as the ratio of the APC 655 nm signal divided by the internal europium reference 615 nm emission signal.
# The POC (percentage of control) was determined by comparing the signal from hydroxylated peptide substrate in the enzyme reaction containing inhibitor compound with that from PHD2 enzyme with DMSO vehicle alone (HI control), and no enzyme (LO control). POC was calculated using the formula: % control (POC)=(cpd−average LO)/(average HI−average LO)*100. Data (consisting of POC and inhibitor concentration in […]) was fitted to a 4-parameter equation (y=A+((B−A)/(1+((x/C)^D))), where A is the minimum y (POC) value, B is the maximum y (POC), C is the x (cpd concentration) at the point of inflection and D is the slope factor) using a Levenburg-Marquardt non-linear regression algorithm.
# [2] = molecular target: T1, Collagen Prolyl Hydroxylase II (CPH2) (Homo sapiens, UniProt O15460); assay: Collagen prolyl hydroxylase II activity by radiometric HPLC measurement of 2-oxoglutarate conversion to succinic acid; format: biochemical
# T1 construct: made in house; host or cells: Trichoplusia ni insect cells (baculovirus, pFastBac1)
# T1 sequence (O15460 22-533 isoform O15460-2 limits assumed): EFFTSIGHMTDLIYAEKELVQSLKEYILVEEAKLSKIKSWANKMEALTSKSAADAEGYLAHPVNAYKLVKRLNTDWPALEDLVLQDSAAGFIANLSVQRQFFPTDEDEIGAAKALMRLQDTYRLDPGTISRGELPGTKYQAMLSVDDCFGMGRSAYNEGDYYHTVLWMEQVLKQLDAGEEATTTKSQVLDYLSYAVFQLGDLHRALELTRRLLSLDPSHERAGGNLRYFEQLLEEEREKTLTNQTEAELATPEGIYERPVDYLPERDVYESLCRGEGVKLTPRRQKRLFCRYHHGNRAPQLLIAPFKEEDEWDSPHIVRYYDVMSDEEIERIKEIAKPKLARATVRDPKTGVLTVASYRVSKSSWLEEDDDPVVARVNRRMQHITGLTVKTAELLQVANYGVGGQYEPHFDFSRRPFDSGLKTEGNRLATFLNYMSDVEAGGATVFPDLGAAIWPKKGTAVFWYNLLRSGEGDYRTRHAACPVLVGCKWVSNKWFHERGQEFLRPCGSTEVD
# T1 sequence (P07237 18-508 partner): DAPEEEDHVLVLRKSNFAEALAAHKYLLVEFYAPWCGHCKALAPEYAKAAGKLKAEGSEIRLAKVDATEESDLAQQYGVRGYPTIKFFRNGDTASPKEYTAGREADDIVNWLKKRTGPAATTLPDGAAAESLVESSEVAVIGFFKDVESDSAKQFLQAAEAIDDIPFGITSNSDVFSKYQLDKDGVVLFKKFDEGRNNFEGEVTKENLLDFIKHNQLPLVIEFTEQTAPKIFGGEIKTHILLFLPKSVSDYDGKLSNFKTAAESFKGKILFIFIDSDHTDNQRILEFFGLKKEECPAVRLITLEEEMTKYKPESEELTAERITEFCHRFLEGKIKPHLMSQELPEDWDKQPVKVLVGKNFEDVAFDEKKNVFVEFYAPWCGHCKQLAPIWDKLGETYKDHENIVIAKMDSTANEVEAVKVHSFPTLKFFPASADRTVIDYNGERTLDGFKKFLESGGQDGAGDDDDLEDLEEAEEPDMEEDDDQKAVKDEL
# Description: Assay Buffer consisted of Tris-HCl, pH 7.5, 0.2 mM DTT, and 0.5 mg/ml catalase. PPG10 peptide was dissolved in 0.25% acetic acid and denatured by boiling for 5 minutes then placed on ice for 5 minutes. The denatured PPG10 was then pre-mixed with 1 M ascorbate, prepared in water, and the mixture diluted with Assay Buffer to yield a working solution of 5× peptide and ascorbate. FeSO4 was freshly dissolved in water and diluted to a 2.8× concentration in Assay Buffer. Enzyme stocks were diluted to a 5× concentration in Assay Buffer. Example compounds plus FeSO4 solution were mixed, followed by addition of 5× enzyme solutions. After 10 minutes gentle mixing at room temperature, the 5× peptide solution was added. […] Final concentrations in the assay were: 50 mM Tris-HCl, pH 7.5, 0.2 mM DTT, 0.5 mg/mL catalase, 10 μM FeSO4, 100 μM PPG10, 50 μM 5-[^14C]-2-oxoglutarate (23-37 cpm/pmol), 1 mM ascorbate, and 4% DMSO. Reactions were gently mixed at room temperature for 1 hour and terminated by addition of an equal volume of 0.02 N H2SO4.
# A portion of each terminated reaction was auto-injected into a Polypore H column (PerkinElmer, Waltham, Mass.) at a rate of 0.3 mL/min with 0.01 NH2SO4 as the mobile phase. The HPLC method employed exploits the difference in pKa of the 2-OG and SA carboxylates to chromatographically separate substrate from product at low pH on ion-exchange resin, as described by Cunliffe, et al (Biochem J., 240, 617-619 (1986)) and Kaule and Gunzler (Anal. Biochem., 184, 291-297 (1990)). An Agilent 1100 HPLC System with dual quaternary pumps, column switching valve, and dual columns was used to resolve product from substrate. The Agilent 1100 Multiple Wavelength Detector indicated UV absorption of the substrate and product peaks at 210 nm and a Beta-RAM Model 2 radiation detector with In-Flow 2:1 scintillation cocktail (IN/US Systems Inc.) enabled quantitation of the 2 radioactive peaks. Laura Lite software (IN/US, Tampa, Fla.) was used to collect and analyze radiometric data. […] To standardize across studies, 2-OG conversion was normalized to percent of control (POC) values using reactions that lacked enzyme or inhibitor as low and high controls, respectively. POC data was fitted to the 4-parameter logistic model (A+((B−A)/(1+((x/C)^D)))) using ActivityBase (IDBS, Alameda Calif.) where A is the minimum POC value, B is the maximum POC value, D is the slope factor, and C is compound concentration at the inflection point (IC50, micromolar).
# Chain of HIF PHD2 (Q9GZT9 whole entry): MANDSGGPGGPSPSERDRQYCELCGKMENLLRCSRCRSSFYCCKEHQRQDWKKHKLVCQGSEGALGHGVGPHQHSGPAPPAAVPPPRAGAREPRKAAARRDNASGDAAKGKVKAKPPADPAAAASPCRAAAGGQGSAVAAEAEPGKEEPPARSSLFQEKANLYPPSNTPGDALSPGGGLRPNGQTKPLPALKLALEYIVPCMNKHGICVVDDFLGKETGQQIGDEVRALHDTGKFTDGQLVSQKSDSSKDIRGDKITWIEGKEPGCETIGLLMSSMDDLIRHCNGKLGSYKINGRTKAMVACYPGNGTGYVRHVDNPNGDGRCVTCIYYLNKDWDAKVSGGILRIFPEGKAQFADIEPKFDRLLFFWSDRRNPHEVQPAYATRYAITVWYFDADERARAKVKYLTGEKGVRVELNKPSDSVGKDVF
compound,measurement,setting,value
"Cn1c(=O)c(C(=O)NCC(=O)O)c(O)c2sc(-c3ccc(Cl)cc3)nc21 [Example 1, N-((2-(4-chlorophenyl)-7-hydroxy-4-methyl-5-oxo-4,5-dihydro[1,3]thiazolo[4,5-b]pyridin-6-yl)carbonyl)glycine]",IC50,[1],47 nM
"Cn1c(=O)c(C(=O)NCC(=O)O)c(O)c2sc(-c3ccccc3)cc21 [Example 15, 2-(7-hydroxy-4-methyl-5-oxo-2-phenyl-4,5-dihydrothieno[3,2-b]pyridine-6-carboxamido)acetic acid]",IC50,[1],21 nM
"Cn1c(=O)c(C(=O)NCC(=O)O)c(O)c2sc(-c3ccc(F)cc3)cc21 [Example 11, 2-(2-(4-fluorophenyl)-7-hydroxy-4-methyl-5-oxo-4,5-dihydrothieno[3,2-b]pyridine-6-carboxamido)acetic acid]",IC50,[1],15 nM
"Cc1c(Br)sc2c(O)c(C(=O)NCC(=O)O)c(=O)n(C)c12 [Example 16, 2-(2-bromo-7-hydroxy-3,4-dimethyl-5-oxo-4,5-dihydrothieno[3,2-b]pyridine-6-carboxamido)acetic acid]",IC50,[1],20 nM
"Cn1c(=O)c(C(=O)NCC(=O)O)c(O)c2sc3ccccc3c21 [Example 9, N-((4-hydroxy-1-methyl-2-oxo-1,2-dihydro[1]benzothieno[3,2-b]pyridin-3-yl)carbonyl)glycine]",IC50,[1],15 nM
"Cc1ccsc1-c1cc2c(s1)c(O)c(C(=O)NCC(=O)O)c(=O)n2C [Example 14, 2-(7-hydroxy-4-methyl-2-(3-methylthiophen-2-yl)-5-oxo-4,5-dihydrothieno[3,2-b]pyridine-6-carboxamido)acetic acid]",IC50,[1],78 nM
"Cn1c(=O)c(C(=O)NCC(=O)O)c(O)c2sccc21 [Example 3, 2-(7-hydroxy-4-methyl-5-oxo-4,5-dihydrothieno[3,2-b]pyridine-6-carboxamido)acetic acid]",IC50,[1],75 nM
same,IC50,[2],345 nM
"Cn1c(=O)c(C(=O)NCC(=O)O)c(O)c2sc(-c3ccc(Cl)cc3)cc21 [Example 5, 2-(2-(4-chlorophenyl)-7-hydroxy-4-methyl-5-oxo-4,5-dihydrothieno[3,2-b]pyridine-6-carboxamido)acetic acid]",IC50,[1],97 nM
"Cc1csc2c(O)c(C(=O)N[C@@H](C)C(=O)O)c(=O)n(C)c12 [Example 7, (S)-2-(7-hydroxy-3,4-dimethyl-5-oxo-4,5-dihydrothieno[3,2-b]pyridine-6-carboxamido)propanoic acid]",IC50,[1],122 nM
"Cn1c(=O)c(C(=O)NCC(=O)O)c(O)c2sc(C(F)(F)F)c(-c3ccccc3)c21 [Example 8, 2-(7-hydroxy-4-methyl-5-oxo-3-phenyl-2-(trifluoromethyl)-4,5-dihydrothieno[3,2-b]pyridine-6-carboxamido)acetic acid]",IC50,[1],18 nM
"C[C@H](NC(=O)c1c(O)c2sc3ccccc3c2n(C)c1=O)C(=O)O [Example 10, N-((4-hydroxy-1-methyl-2-oxo-1,2-dihydro[1]benzothieno[3,2-b]pyridin-3-yl)carbonyl)-L-alanine]",IC50,[1],109 nM
"Cc1csc2c(O)c(C(=O)NCC(=O)O)c(=O)n(C)c12 [Example 4, 2-(7-hydroxy-3,4-dimethyl-5-oxo-4,5-dihydrothieno[3,2-b]pyridine-6-carboxamido)acetic acid]",IC50,[1],24 nM
"Cc1nc2c(s1)c(O)c(C(=O)NCC(=O)O)c(=O)n2C [Example 2, N-((7-hydroxy-2,4-dimethyl-5-oxo-4,5-dihydro[1,3]thiazolo[4,5-b]pyridin-6-yl)carbonyl)glycine]",IC50,[1],20 nM
"Cn1c(=O)c(C(=O)NCC(=O)O)c(O)c2sc(-c3cncnc3)cc21 [Example 12, 2-(7-hydroxy-4-methyl-5-oxo-2-(pyrimidin-5-yl)-4,5-dihydrothieno[3,2-b]pyridine-6-carboxamido)acetic acid]",IC50,[1],8.3 nM
"Cc1ncccc1-c1cc2c(s1)c(O)c(C(=O)NCC(=O)O)c(=O)n2C [Example 13, 2-(7-hydroxy-4-methyl-2-(2-methylpyridin-3-yl)-5-oxo-4,5-dihydrothieno[3,2-b]pyridine-6-carboxamido)acetic acid]",IC50,[1],16 nM
"Cn1c(=O)c(C(=O)NCC(=O)O)c(O)c2sc(Br)cc21 [Example 6, 2-(2-bromo-7-hydroxy-4-methyl-5-oxo-4,5-dihydrothieno[3,2-b]pyridine-6-carboxamido)acetic acid]",IC50,[1],7.3 nM
same,IC50,[2],30 nM
"Cn1c(=O)c(C(=O)CCC(=O)O)c(O)c2sc(Br)cc21 [Example 17, 4-(2-bromo-7-hydroxy-4-methyl-5-oxo-4,5-dihydrothieno[3,2-b]pyridin-6-yl)-4-oxobutanoic acid]",IC50,[1],64 nM
same,IC50,[2],3780 nM
"Cn1c(=O)c(C(=O)CCC(=O)O)c(O)c2sccc21 [Example 18, 4-(7-hydroxy-4-methyl-5-oxo-4,5-dihydrothieno[3,2-b]pyridin-6-yl)-4-oxobutanoic acid]",IC50,[1],3 nM
same,IC50,[2],34300 nM
